From ChEMBL document CHEMBL4251728, “Toll-like Receptors for the Treatment of Autoimmune, Inflammation, and Infectious Diseases” (ACS Med Chem Lett, 2018)

Biological target: T1, Toll-like receptor 7 (Homo sapiens, UniProt Q9NYK1)
T1 sequence (Q9NYK1 whole entry): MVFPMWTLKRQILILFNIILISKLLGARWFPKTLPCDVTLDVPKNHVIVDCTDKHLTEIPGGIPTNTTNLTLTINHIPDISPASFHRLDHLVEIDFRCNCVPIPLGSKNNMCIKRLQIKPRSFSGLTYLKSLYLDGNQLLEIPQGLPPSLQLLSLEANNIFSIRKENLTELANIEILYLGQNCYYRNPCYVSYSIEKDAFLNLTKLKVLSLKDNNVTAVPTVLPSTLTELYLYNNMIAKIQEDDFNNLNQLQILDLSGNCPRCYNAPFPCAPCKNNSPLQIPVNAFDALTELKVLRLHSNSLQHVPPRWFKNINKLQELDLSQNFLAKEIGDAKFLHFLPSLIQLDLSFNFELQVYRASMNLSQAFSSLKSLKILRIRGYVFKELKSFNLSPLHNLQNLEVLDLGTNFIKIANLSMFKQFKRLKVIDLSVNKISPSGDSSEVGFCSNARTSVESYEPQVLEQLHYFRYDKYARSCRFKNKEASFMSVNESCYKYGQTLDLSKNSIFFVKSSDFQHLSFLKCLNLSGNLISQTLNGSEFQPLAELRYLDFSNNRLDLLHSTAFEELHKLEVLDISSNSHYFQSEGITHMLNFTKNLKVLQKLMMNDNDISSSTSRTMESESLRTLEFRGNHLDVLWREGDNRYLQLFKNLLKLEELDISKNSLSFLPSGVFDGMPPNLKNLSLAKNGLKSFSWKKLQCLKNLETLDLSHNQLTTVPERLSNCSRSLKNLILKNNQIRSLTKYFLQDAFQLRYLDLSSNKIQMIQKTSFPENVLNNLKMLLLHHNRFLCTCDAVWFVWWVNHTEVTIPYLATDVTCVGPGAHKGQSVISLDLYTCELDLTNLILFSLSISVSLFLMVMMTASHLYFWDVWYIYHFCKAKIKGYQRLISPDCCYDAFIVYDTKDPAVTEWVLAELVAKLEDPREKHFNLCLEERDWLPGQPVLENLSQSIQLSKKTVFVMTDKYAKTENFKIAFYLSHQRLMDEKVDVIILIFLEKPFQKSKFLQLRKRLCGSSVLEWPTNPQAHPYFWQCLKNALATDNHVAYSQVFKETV
Assay: Antagonist activity at TLR7 in HEK cells assessed as decrease in R848-induced NF-kappaB activation incubated for 30 mins followed by R848 addition measured after 5 hrs by steady-Glo reagent based assay
Type: cell-based

SMILES	IC50 [nM]
C[C@H]1C[C@@H](NC(=O)[C@@H](O)C(C)(C)C)C[C@H](c2ccc(C(F)(F)F)c3nccnc23)C1	< 1000
C[C@@H]1C[C@H](c2ccc(C#N)c3ncccc23)CN(C(=O)CC2C3CC2CN(C)C3)C1 (some centres not stated)	< 1000
C[C@@H]1C[C@H](c2ccc(C(F)(F)F)c3ncccc23)CN(C(=O)NC2CC2)C1	1000 to 20000
C[C@@H]1C[C@@H](c2ccc(C#N)c3ncccc23)CN(C(=O)C[C@H]2[C@@H]3CNC[C@@H]32)C1	< 1000
C[C@@H]1C[C@H](c2ccc(C#N)c3ncccc23)CN(C(=O)CC2CCN(C)CC2)C1	< 1000
C[C@@H]1C[C@H](N)C[C@H](c2ccc(C(F)(F)F)c3nccnc23)C1	< 1000
C[C@@H]1C[C@H](c2ccc(C#N)c3ncccc23)CN(C(=O)CN2CCN(C)CC2)C1	< 1000

Now from value to compound:

IC50 [nM]	SMILES
< 1000	CC1CC(c2ccc(C#N)c3ncccc23)CN(CC2CCN(C)C2)C1 (configuration not stated)
> 20000	C[C@@H]1C[C@@H](c2ccc(C(F)(F)F)c3ncccc23)CN(C(=O)CCn2cccn2)C1
< 1000	Cc1ccc([C@H]2C[C@@H](C)CN(C(=O)CC3CCN(C)CC3)C2)c2cccnc12
< 1000	C[C@@H]1C[C@H](c2ccc(C#N)c3ncccc23)CN(C(=O)NC2CCN(C)CC2)C1
< 1000	C[C@@H]1C[C@H](N)C[C@@H](c2ccc(C(F)(F)F)c3nccnc23)C1
